Measured values: US9493447B2, “Optically active PDE10 inhibitor” (OMEROS CORPORATION, priority 2014, dated 2016)

Experiments:
PDE2A = PDE2A (Homo sapiens (Human), UniProt O00408); assay: PDE selectivity SPA assay, PDE2A; assay type: biochemical; details: substrate 37 nM H-cGMP
Method: (§1) The PDE assay medium consisted of (final concentrations); 50 mM Tris-HCL, pH 7.5; 8.3 mM MgCl2; 1.7 mM EGTA; 0.5 mg/mL bovine serum albumin; and substrate (H-cAMP or H-cGMP). The BSA was lyophilized powder, essentially fatty acid free, ≧96% pure from Sigma (A6003).

PDE5A = PDE5A (Homo sapiens (Human), UniProt O76074); assay: PDE selectivity SPA assay, PDE5A; assay type: biochemical; details: substrate 37 nM H-cGMP
Method: as §1

bovine PDE6 = bovine PDE6 (Bos taurus, UniProt P11541+P23439); assay: PDE selectivity assay, PDE6; assay type: biochemical
bovine PDE6, sequence (P11541 2-859 limits assumed): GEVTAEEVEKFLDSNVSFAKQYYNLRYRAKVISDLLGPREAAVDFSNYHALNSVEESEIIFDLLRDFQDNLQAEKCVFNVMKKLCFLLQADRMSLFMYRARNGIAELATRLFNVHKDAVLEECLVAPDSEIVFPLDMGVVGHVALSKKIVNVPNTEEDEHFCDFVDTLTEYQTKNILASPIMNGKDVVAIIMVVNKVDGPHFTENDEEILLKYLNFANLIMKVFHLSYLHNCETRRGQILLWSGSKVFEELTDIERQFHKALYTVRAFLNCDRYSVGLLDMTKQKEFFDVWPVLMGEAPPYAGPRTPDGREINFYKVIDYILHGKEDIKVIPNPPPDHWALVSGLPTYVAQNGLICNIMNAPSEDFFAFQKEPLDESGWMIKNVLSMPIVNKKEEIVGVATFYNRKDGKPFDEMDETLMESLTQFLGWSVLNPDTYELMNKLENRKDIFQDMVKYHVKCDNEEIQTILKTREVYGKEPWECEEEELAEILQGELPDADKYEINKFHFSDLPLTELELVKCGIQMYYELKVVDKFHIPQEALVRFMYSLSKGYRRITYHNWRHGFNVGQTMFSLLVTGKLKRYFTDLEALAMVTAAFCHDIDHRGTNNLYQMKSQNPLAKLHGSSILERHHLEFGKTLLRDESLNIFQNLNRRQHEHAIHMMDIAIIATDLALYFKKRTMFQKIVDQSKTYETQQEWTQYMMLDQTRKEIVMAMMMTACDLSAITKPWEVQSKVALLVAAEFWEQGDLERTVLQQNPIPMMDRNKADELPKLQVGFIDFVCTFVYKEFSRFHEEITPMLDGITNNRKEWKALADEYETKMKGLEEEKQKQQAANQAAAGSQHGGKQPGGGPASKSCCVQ
bovine PDE6, sequence (P23439 2-853 limits assumed): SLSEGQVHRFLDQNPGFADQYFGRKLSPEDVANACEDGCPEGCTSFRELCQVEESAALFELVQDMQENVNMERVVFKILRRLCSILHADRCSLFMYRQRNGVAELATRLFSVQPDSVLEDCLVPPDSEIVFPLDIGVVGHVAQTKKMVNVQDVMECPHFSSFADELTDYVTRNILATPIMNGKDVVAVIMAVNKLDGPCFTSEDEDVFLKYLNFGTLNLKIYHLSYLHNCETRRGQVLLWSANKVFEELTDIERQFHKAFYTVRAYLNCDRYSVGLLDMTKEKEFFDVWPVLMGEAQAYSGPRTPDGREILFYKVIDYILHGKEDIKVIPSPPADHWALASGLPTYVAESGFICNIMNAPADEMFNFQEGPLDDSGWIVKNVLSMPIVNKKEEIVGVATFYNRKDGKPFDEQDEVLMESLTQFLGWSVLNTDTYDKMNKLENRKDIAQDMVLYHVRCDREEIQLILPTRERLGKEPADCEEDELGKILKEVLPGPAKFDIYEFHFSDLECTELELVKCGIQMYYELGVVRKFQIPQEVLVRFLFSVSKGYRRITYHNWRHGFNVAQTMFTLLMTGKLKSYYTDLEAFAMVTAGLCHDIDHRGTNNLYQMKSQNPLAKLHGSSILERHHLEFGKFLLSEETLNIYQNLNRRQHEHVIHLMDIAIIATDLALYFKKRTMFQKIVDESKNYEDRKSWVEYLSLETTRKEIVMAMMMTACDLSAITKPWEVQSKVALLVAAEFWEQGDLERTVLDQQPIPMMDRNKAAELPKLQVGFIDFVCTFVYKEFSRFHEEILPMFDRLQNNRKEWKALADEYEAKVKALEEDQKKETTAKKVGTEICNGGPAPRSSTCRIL
Method: as §1

PDE10A2 = PDE10A2 (Homo sapiens (Human), UniProt Q9Y233); assay: PDE selectivity SPA assay, PDE10A2; assay type: biochemical; details: Table 1 selectivity profile
PDE10A2, sequence (Q9Y233 267-1055): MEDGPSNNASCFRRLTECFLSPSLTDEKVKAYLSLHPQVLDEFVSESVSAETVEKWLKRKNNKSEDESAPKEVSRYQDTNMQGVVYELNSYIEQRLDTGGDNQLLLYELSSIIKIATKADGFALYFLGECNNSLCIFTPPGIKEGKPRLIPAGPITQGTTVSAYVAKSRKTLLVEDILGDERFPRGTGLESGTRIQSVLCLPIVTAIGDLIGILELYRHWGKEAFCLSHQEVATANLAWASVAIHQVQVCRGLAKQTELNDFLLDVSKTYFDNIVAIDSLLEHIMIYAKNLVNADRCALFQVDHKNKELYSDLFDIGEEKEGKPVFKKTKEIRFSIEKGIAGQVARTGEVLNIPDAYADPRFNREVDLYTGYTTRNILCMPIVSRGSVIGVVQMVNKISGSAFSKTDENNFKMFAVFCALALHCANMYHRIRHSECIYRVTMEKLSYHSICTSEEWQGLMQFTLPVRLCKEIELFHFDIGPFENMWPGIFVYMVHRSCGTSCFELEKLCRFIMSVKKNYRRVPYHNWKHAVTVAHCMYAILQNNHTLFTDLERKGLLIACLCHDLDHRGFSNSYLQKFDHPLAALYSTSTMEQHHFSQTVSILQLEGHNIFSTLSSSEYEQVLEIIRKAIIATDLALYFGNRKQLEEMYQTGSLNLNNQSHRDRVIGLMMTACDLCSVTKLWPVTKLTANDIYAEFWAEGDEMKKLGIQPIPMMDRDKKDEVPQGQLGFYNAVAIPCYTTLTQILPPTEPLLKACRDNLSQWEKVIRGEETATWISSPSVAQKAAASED
Method: as §1

Human PDE10 = Human PDE10 (Homo sapiens (Human), UniProt Q9Y233); assay: Inhibition of Human PDE10 (Example 13, SPA assay); assay type: biochemical; details: substrate 125 nM H-cGMP; all three compounds tested in the same experiment
Human PDE10, sequence (Q9Y233 267-1055): as above
Method: as §1

PDE10 = details: from Soderling and Beavo 2000; read-out: IC50 (50% inhibitory concentration) PDE10; cited from earlier work

PDE2A, sequence (O00408 whole entry): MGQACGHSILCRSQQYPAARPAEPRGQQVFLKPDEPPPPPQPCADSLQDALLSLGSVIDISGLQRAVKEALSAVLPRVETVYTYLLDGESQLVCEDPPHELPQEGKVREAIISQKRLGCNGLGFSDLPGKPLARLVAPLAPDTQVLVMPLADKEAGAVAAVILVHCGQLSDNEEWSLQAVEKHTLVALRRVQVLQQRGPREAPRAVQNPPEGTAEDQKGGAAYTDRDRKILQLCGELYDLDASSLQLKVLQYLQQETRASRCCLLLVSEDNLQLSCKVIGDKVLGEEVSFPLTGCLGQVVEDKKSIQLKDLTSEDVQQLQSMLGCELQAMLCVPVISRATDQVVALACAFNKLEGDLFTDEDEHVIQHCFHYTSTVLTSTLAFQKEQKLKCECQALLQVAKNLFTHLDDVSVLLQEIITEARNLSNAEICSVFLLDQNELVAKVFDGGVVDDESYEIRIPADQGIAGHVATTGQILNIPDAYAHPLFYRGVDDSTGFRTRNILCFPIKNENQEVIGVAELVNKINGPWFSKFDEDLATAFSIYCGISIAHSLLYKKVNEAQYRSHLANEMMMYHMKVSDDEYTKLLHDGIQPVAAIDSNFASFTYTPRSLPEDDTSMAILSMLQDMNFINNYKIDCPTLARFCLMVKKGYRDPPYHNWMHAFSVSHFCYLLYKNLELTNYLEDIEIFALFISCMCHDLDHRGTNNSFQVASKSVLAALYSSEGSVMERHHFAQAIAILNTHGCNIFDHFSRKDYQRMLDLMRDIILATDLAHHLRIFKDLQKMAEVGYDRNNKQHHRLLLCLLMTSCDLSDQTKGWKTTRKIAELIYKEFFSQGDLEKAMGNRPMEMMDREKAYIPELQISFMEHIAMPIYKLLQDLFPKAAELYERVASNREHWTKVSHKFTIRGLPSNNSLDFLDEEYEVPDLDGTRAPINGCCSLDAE

CCOC(C(=O)c1ccc(-c2cc(OC)c(Cl)c(OC)c2)o1)c1ccc(-c2nnc(C)s2)cc1 (racemic) [Compound 1001, 1-(5-(4-chloro-3,5-dimethoxyphenyl)furan-2-yl)-2-ethoxy-2-(4-(5-methyl-1,3,4-thiadiazol-2-yl)phenyl)ethanone]
IC50 (PDE2A): 545 nM
IC50 (PDE5A): 5740 nM
IC50 (bovine PDE6): > 3000 nM
IC50 (PDE10A2): 0.62 nM
IC50 (Human PDE10): 0.62 nM

CCO[C@H](C(=O)c1ccc(-c2cc(OC)c(Cl)c(OC)c2)o1)c1ccc(-c2nnc(C)s2)cc1 [Compound 2001, (S)-1-(5-(4-chloro-3,5-dimethoxyphenyl)furan-2-yl)-2-ethoxy-2-(4-(5-methyl-1,3,4-thiadiazol-2-yl)phenyl)ethanone]
IC50 (Human PDE10): 0.44 nM

CCO[C@@H](C(=O)c1ccc(-c2cc(OC)c(Cl)c(OC)c2)o1)c1ccc(-c2nnc(C)s2)cc1 [Compound 3001]
IC50 (Human PDE10): 5.8 nM

CC(C)Cn1c(=O)n(C)c(=O)c2[nH]cnc21 [IBMX]
IC50 (PDE10): 2600 nM
